Source: US20250312468A1, “ANTI-PROTAC ANTIBODIES AND COMPLEXES” (Merck Patent GmbH, priority 2021, published 2025)

Experiments:
CD33xMIC10 = test: SPR affinity of VHH clone (antibody fusion) to PROTACs; settings: CD33xMIC10 immobilized, 25° C., read-out: KD [M] for antibody binding to PROTAC
In short: (§1)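 VHH clones immobilized as CD33 antibody fusions by amine coupling on a CM5 chip (3,000–6,000 RU); PROTACs injected as two-fold series from 1 μM to 0.002 μM in phosphate-buffered saline pH 7.4 with 0.05% Tween20 and 2% DMSO at 25° C. Reference- and blank-subtracted sensorgrams fit to a 1:1 Langmuir model.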

CD33xMIC8 = test: as above; settings: CD33xMIC8 immobilized, 25° C., read-out: KD [M] for antibody binding to PROTAC
In short: as §1

CLL1xMIC7 = test: as above; settings: CLL1xMIC7 immobilized, 25° C., read-out: KD [M] for antibody binding to PROTAC
CD33xMIC9 = test: as above; settings: CD33xMIC9 immobilized, 25° C., read-out: KD [M] for antibody binding to PROTAC
In short: as §1

CD33xMIC11 = test: as above; settings: CD33xMIC11 immobilized, 25° C., read-out: KD [M] for antibody binding to PROTAC
In short: as §1

CD33xMIC14 = test: as above; settings: CD33xMIC14 immobilized, 25° C., read-out: KD [M] for antibody binding to PROTAC
In short: as §1

BRD4 = BRD4 (Homo sapiens, UniProt O60885); test: BRD4 degradation, immunofluorescence imaging in MDA-MB-468 cells; type: cell-based; design: endogenous in cells; host or cells: MDA-MB-468; settings: 4 nM, 43 h, relative to untreated cells
Protocol: BRD4 was chosen as the model protein for the disclosed invention due to the strong pharmacological effect (cell death) that is induced upon degradation of BRD4. For the evaluation of targeted BRD4 degradation, MDA-MB-468 cells were seeded into a black 96 well clear bottom plates (10,000 cells/well) followed by incubation (37° C., 5% CO2) in a humid chamber overnight. Test compounds were added using a D300e digital dispenser (Tecan) and incubated for 43 h (37° C., 5% CO2, humid chamber). Cells were washed 3× with PBS, fixed in 2% (v/V) formaldehyde for 15 min at rt and washed again (3×). To permeabilize cells, 0.2% (v/V) Triton-X-100 was added for 10 min at rt and removed by washing with PBS (3×). Wells were blocked with 3% (w/v) BSA in PBS for 60 min at rt, washed trice, and cells were incubated with 2.3 μg/mL rabbit anti-BRD4 antibody (Abcam) diluted in 3% BSA/PBS for […] at 4° C. overnight. […] After a final washing step, cells were preserved in 0.1% (w/V) sodium azide and transferred to a Cytation 5 cell imaging reader (Biotek). […] For quantitative analysis of nuclear BRD4 levels, only the green fluorescence (AF488) co-localized with DAPI staining was counted. Green fluorescence was normalized to cell number and expressed relative to untreated cells.

MIC1 = test: SPR binding of PROTACs to immobilized antibody MIC1; settings: binding of PROTACs to MIC1, steady-state model
Protocol: The binding affinities of hit antibodies MIC1 and MIC2 to a diverse set of VH032-based PROTACs (FIGS. 8A-8B) was determined by surface plasmon resonance (SPR) in a Biacore T200 instrument. The running buffer consist of PBS, 0.05% Tween-20, 2% DMSO and temperature and flow rate were set to 30° C. and 30 μL/min, respectively. The assay setup is depicted exemplarily in FIG. 7A. CM5 sensor chips were coated with antibody (=ligand; 2500 RU) using standard EDC/NHS chemistry. PROTACs (=analytes) were serially diluted (1 μM-1.9 nM) in running buffer, injected to the instrument in consecutive runs and were captured by the antibody resulting in an increase of the corresponding SPR response. After the association step (300 s), running buffer was injected for 600 s and the PROTAC dissociated from the antibody leading to signal decrease. After each run, residual bound PROTAC was removed from the immobilized antibody by injection of 10 mM glycine/HCl, pH 1.5 for 2×30 s regenerating the antibody for the next association and dissociation cycle. To compensate for matrix effects, the measured SPR response signal was subtracted by the analyte response to an inactivated (EDC/NHS, ethanol amine) reference surface omitting the ligand. Furthermore, a DMSO solvent correction was performed and analyte response was subtracted by the running buffer signal. […]

Row | SMILES | Kd (CD33xMIC10) | Kd (CD33xMIC8) | Kd (CLL1xMIC7) | Kd (CD33xMIC9) | Kd (CD33xMIC11) | Kd (CD33xMIC14) | remaining BRD4 (BRD4) | Kd (MIC1)
1 | Cc1ncsc1-c1ccc(CNC(=O)[C@@H]2C[C@@H](O)CN2C(=O)[C@@H](NC(=O)CCCCCCCCCCNC(=O)c2cc3c(cc2CS(C)(=O)=O)-c2cn(C)c(=O)c4[nH]cc(c24)CN3c2ncc(F)cc2F)C(C)(C)C)cc1 [GNE987] | 1.3e-08 M | 6.5e-09 M | < 1e-10 M | 4.3e-08 M | 2e-08 M | 1e-08 M | 39.0% | 
2 | Cc1ncsc1-c1ccc([C@H](C)NC(=O)[C@@H]2C[C@@H](O)CN2C(=O)[C@@H](NC(=O)COCCCOCCNC(=O)C[C@@H]2N=C(c3ccc(Cl)cc3)c3c(sc(C)c3C)-n3c(C)nnc32)C(C)(C)C)cc1 [ARV771] | 1.4e-07 M | 3.1e-08 M | 8.8e-09 M | 4e-09 M | 3.7e-09 M | 1.4e-07 M |  | 0.0065 µM
